These results are taken from paper PMC9804387, “Substrate Peptidomimetic Inhibitors of P. falciparum Plasmepsin X with Potent Antimalarial Activity” (Chemmedchem, 2022).

Where a name gives a salt, the structure may show the parent alone.

In data set [1] the test system is PMIX processing of the ASP protein. Put plainly: ASP processing inhibition assay in parasites (western blot, anti-HA). Type of data set: cell-based, P. falciparum. The following applies: 38 at 10 μM, HA‐tagged ASP parasites. As for the experimental part: (§1) In this experiment, synchronized late trophozoite/early schizont stage parasites, expressing HA‐tagged ASP, were incubated with 38 (10 μM), the positive control WM382 (1) (2.5 nM) (a dual potent inhibitor of PMIX and PMX) and the DMSO vehicle control. Parasites from each treatment condition were then lysed and the processing of the known PMX and PMIX substrates were detected by western blot as a corollary of protease activity.
P. falciparum ASP and SERA5 Processing Inhibition Assay. P. falciparum substrate processing inhibition assays were performed as previously described.[28] Synchronized ring stage cultures were treated with test compounds 38 (10 μM) and WM382 (2.5 nM)[28] or DMSO as a vehicle control. The parasite cultures were grown to the schizont stage before passing over LD magnetic columns (Miltenyi Biotech) to remove uninfected erythrocytes. Parasites were eluted from columns with RPMI 1640 (in‐house) culture medium to which the appropriate inhibitor at the same concentration had been added. Eluted parasites were adjusted to 5×10^6 schizonts/mL and 150 μL added per well of a 96‐well flat‐bottomed culture plate. […] HA‐tagged apical sushi protein (ASP) was detected in the merozoite fraction with anti‐HA mAb and SERA5 was detected in the supernatant fraction with an anti‐SERA5 polyclonal Ab. […]

The target in another data set is T1, recombinant Pf PMX (Plasmodium falciparum, UniProt Q8IAS0).
T1 construct: made in house
T1 sequence (Q8IAS0 222-573): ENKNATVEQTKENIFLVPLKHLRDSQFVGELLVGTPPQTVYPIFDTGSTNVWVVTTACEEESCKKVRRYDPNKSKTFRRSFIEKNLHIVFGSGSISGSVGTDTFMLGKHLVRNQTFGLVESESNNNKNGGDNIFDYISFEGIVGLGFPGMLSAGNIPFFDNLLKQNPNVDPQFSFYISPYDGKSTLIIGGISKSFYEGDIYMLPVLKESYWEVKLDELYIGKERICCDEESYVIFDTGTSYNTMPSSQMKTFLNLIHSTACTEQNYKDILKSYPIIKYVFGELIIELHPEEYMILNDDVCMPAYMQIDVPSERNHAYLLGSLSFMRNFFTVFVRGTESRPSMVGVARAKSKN
The data set can be described thus: PMX biochemical FRET assay (Rh2N fluorogenic substrate cleavage). The settings on record: 37 °C. As to the method: FRET Protease Assays. FRET protease assays were performed as previously described.[19, 20, 27, 28] Briefly, ten‐point 1 : 3‐fold dilution series of the compounds were prepared in 384‐well black low volume assay plates (Greiner) using an Echo555 (Labcyte). 10 mM compound stocks were transferred into assay plates such that the starting concentration was 90 μM (Pv PMV assays), 11.25 μM (renin, cathepsin D and BACE‐1 assays) or 100 nM and 10 μM (Pf PMX and Pf PMIX assays). All wells were backfilled to 200 nL DMSO such that the DMSO concentration remained constant across the assay plates (1 % final). All compound potency assays were conducted in 20 μL total volume. For each assay, 10 μL of recombinant enzymes in respective assay buffers (Table S2) were dispensed into compound containing assay plates using a Multidrop‐Combi dispenser and allowed to incubate for 15 min. Recombinant Pf PMX, Pf PMIX and Pv PMV were expressed as previously described,[23, 27, 28] and recombinant human aspartyl proteases were purchased commercially. 10 μL of the fluorogenic peptide substrates incubated at 37 °C for the duration and conditions noted in Table S2. Samples were excited at 340 nm and fluorescence emission measured at 492 nm using an Envision fluorescence plate reader (Perkin‐Elmer). The 0 % inhibition control contained DMSO alone (1 % final) and the 100 % inhibition control was in the absence of enzyme. […]
Table S2 . P rotease FRET assay conditions.
PMX as sa y PMIX PM V assay Renin assay Cathepsin D assay BA CE-1 assay E nzy me prot e as e 0.25 nM pro te a se 6 nM prot e as e q ua nti ty 0.1 nM pro t ea se 1.5 nM pro t ea se 2.5 nM pro t ea se 3 nM (Pro te os #R-001) ( Athe ns Re sea rc h (Sigma #S4195) […]
25mM so di um acetate, 100 mM 25 mM M E S, 25 m M 50 mM Tr is, 100 mM 100 mM so di u m 20 mM so dium Buffer acetate, 0.005% sodium chloride and Tris-HCl, 0.01% N aC l, 0. 1% Bri j-35, acetate 0.02% scetate, 0.05% […]
Sub str at e DABCYL- ( DA BC YL ) - DABCYL- DABCYL-(γ- Ab u) - E[E(EDANS)]KPIL […]

The nature of another data set: in vitro. The settings on record: human. The format is cell-based. As to the method:
HepG2 Cytotoxicity Assay. HepG2 cytotoxicity assays were performed as previously described.[41] Briefly, human hepatocyte HepG2 cells were cultured in DMEM supplemented with 10 % FCS at 37 °C and 5 % CO2 in a humidified incubator. Cells were seeded at 1000 cells/well in 50 μL in 384‐well plates (Grenier) and compounds incubated in ten‐point 1 : 2‐fold dilution series for 48 h. Cytotoxicity was determined using Cell Titer‐Glo (Promega), normalized to DMSO alone controls (100 % viability) and control compound Bortezomib (0 % viability at 10 μM). CC50 values were calculated by GraphPad Prism (8.0.2) software using a nonlinear regression four‐parameter fit analysis with the sigmoidal dose response (variable slope).

Another data set addresses T2, BACE‐1 (Homo sapiens, UniProt P56817).
T2 construct: purchased Sigma S4195
Put plainly: BACE-1 FRET protease assay. Type of data set: biochemical. The following applies: mean and SD of 4 replicate FRET experiments, 37 °C; highest concentration tested 11 μM.

For data set [2], the system named is SERA5 processing by SUB1, indicative of upstream activity by PMX. Put plainly: SERA5 processing inhibition assay in parasites (western blot, anti-SERA5). The settings on record: 38 at 10 μM. The format is cell-based, P. falciparum.
Excerpt: PMX and PMIX ligand cleavage in P. falciparum parasites. It was next determined whether 38 could inhibit PMX and PMIX processing of known invasion and egress ligands in P. falciparum parasites. […] SERA5 is not a direct substrate of PMX, but is processed by SUB1 which itself is activated by PMX. The degree of downstream processing of SERA5 by SUB1 is indicative of PMX activity.
as §1
P. falciparum ASP and SERA5 Processing Inhibition Assay. P. falciparum substrate processing inhibition assays were performed as previously described.[28] Synchronized ring stage cultures were treated with test compounds 38 (10 μM) and WM382 (2.5 nM)[28] or DMSO as a vehicle control. […] HA‐tagged apical sushi protein (ASP) was detected in the merozoite fraction with anti‐HA mAb and SERA5 was detected in the supernatant fraction with an anti‐SERA5 polyclonal Ab. […]
(In general: In western blotting, separated proteins are transferred to a membrane and probed.)

Another data set deals with PMIX. Further details: method as in PMID 29074775, PMID 32109369, PMID 23260352, PMID 29519896. The settings on record: Figure 1, described in literature; cited from earlier work.
A further data set relates to PMX. The settings on record: cited from earlier work.
The subject of a further data set is Pf 3D7. Further details: method as in PMID 29074775, PMID 32109369, PMID 23260352, PMID 29519896. The following applies: Figure 1, described in literature; cited from earlier work.
Setting [3] is: Table 3, mean and SD of 4 replicate FRET experiments.
[4] abbreviates: recombinant PMX, fluorogenic substrate (Rh2N) cleavage, 4 h, mean and SD of 4 replicates (Tables 1, 2).

T2 sequence (P56817 46-460 limits assumed): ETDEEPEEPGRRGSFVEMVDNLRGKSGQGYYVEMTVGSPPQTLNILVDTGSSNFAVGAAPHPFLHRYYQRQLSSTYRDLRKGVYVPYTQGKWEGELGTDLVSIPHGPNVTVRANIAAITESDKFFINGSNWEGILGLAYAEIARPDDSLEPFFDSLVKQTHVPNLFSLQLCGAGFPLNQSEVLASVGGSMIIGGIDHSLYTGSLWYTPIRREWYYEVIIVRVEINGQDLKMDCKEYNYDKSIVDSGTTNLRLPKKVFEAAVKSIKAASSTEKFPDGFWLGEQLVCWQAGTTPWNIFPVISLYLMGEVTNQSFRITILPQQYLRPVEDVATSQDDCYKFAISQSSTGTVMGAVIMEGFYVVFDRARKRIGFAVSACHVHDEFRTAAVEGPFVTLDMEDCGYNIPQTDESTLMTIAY

Usually IC50 stands for the concentration needed to halve the response being measured. The CC50 is the concentration that lowers cell viability or growth by half. For `C[C@@H](NC[C@@H](O)[C@H](Cc1ccccc1)NC(=O)[C@H](CO)NC(=O)OCc1ccccc1)c1ccccc1` [Compd 38, Cbz‐Ser‐Phe‐HEA‐Bn(CH3)⋅TFA], in data set [1], the “ASP processing by PMIX (western blot)” value is listed as “partial inhibition of PMIX processing”. Further, the IC50 is 60 nM on recombinant Pf PMX (setting [3]), 60 nM at recombinant Pf PMX (setting [4]) and more than 11 µM at BACE‐1. This molecule also showed a CC50 at 48 h in “in vitro” of more than 40 µM. Moreover, in data set [2], the “SERA5 processing (western blot)” value was “complete inhibition of SERA5 processing”.

The term EC50 denotes the concentration needed to bring the measured effect to its halfway point. As to `C[C@@H](NC[C@@H](O)[C@H](Cc1ccccc1)NC(=O)c1ccc(C(=O)N2CCN(C)CC2)cc1)c1ccccc1` [Compd 2, reference compound], the IC50 in the data set with PMIX was 650 nM; on recombinant Pf PMX (setting [3]), 1 nM; at recombinant Pf PMX (setting [4]), 1 nM; against BACE‐1, more than 11 µM; with PMX (Figure 1, described in literature) it was 1.4 nM. The “selectivity for PMX compared to PMIX” value in the data set with PMX is on record as more than 500 fold. Also, the concentration giving a half-maximal response (EC50) in the data set on Pf 3D7 is 0.6 nM.
